# From patent EP0114887B1, “POLYPEPTIDE” (LA JOLLA CANCER RESEARCH FOUNDATION, priority 1982, dated 1990)
# Peptide text beside a SMILES is read from it.
# Columns and labels:
# cells [1] = test: Cell-attachment activity of the synthetic fragment compared with the entire polypeptide; format: cell-based
# cells [2] = test: Cell attachment to peptide-coupled Sepharose (agarose) beads; format: cell-based; settings: coupled to cyanogen bromide-activated agarose beads (Sepharose), sterilized by autoclaving
# Experimental: The four synthetic peptides as well as the 11.5-kDal fragment and a 200-kDal fragment of fibronectin were coupled to cyanogen bromide-activated Sepharose-6MB beads (Pharmacia) according to the manufacturer's instructions. The peptides were first reduced as described above and used at 8 mg of peptide per ml of Sepharose. Albumin-coated beads and beads derivatized with ethanolamine were used as controls.
# The cell attachment assays were performed as described (Ruoslahti, E. et al (1981) Methods Enzymology82,803-831) with human fibroblasts or normal rat kidney (NRK) cells. Briefly, 100 I of a single- cell suspension containing […] was placed in a flat-bottom microtiter well that had been coated with one of the peptides or with fibronectin. After 1 h at 37°C, unattached cells were washed away and attached cells were fixed and stained for counting. In some experiments soluble peptide was added to the medium to determine if its presence during the attachment would have an inhibitory effect. Cell attachment to the agarose beads was performed on a layer of beads in the bottom of a round-bottom microtiter well exactly as described above.
smiles,measurement,setting,value
"CC[C@H](C)[C@H](NC(=O)[C@H](CO)NC(=O)[C@@H](NC(=O)[C@@H]1CCCN1C(=O)[C@H](CCCCN)NC(=O)[C@H](CO)NC(=O)[C@H](CO)NC(=O)[C@H](C)NC(=O)[C@@H]1CCCN1C(=O)[C@H](CO)NC(=O)[C@H](CC(=O)O)NC(=O)CNC(=O)[C@H](CCCNC(=N)N)NC(=O)CNC(=O)[C@@H](NC(=O)[C@@H](NC(=O)[C@H](C)NC(=O)[C@@H](N)Cc1ccc(O)cc1)C(C)C)[C@@H](C)O)[C@@H](C)CC)C(=O)N[C@@H](CC(N)=O)C(=O)N[C@@H](Cc1ccc(O)cc1)C(=O)N[C@@H](CCCNC(=N)N)C(=O)N[C@H](C(=O)N[C@@H](CCC(=O)O)C(=O)N[C@H](C(=O)N[C@@H](CC(=O)O)C(=O)N[C@@H](CCCCN)C(=O)N1CCC[C@H]1C(=O)N[C@@H](CO)C(=O)N[C@@H](CCC(N)=O)C(=O)N[C@@H](CCSC)C(=O)O)[C@@H](C)CC)[C@@H](C)O [30-residue fragment, H-Tyr-Ala-Val-Thr-Gly-Arg-Gly-Asp-Ser-Pro-Ala-Ser-Ser-Lys-Pro-IIe-Ser-IIe-Asn-Tyr-Arg-Thr-Glu-IIe-Asp-Lys-Pro-Ser-Gln-Met-OH] (H-YAVTGRGDSPASSKPISINYRTEIDKPSQM-OH)",cell-attachment activity compared with the entire sequence,cells [1],the same activity as the entire sequence
same,attachment of cells to beads,cells [2],induces attachment of cells to the beads
